What all share (assay type): binding
The target of one assay is T1, ACK (Homo sapiens, UniProt Q07912).
T1 construct: screened for activity against several kinases in Jurkat cells; endogenous in cells; host or cells: Jurkat cell lysate
Description: Probe-based (AX9989) kinase profiling in Jurkat lysate: ACK. As to conditions: read-out: ACK Inhibition % at indicated screening concentration; for inhibition at 1 µM: screening concentration 1 μM; for inhibition at 10 µM: screening concentration 10 μM. The procedure, abridged:
(§1)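 Percent inhibition was derived from reduced LC/MS fragment intensities of probe-labeled peptides relative to compound-free controls. Before labeling with 5 μM AX9989, Mn2+-supplemented (20 mM) Jurkat lysate was exposed to compound for 15 min at room temperature.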

Another assay concerns the target T2, JAK1 (Homo sapiens, UniProt P23458).
T2 construct: screened for activity against several kinases in Jurkat cells; endogenous in cells; host or cells: Jurkat cell lysate
Description: Probe-based (AX9989) kinase profiling in Jurkat lysate: JAK1. Conditions: read-out: JAK1 Inhibition % at indicated screening concentration; for inhibition at 1 µM: screening concentration 1 μM; for inhibition at 10 µM: screening concentration 10 μM. The procedure, abridged: as §1

For the next assay, the target named is T3, TAO2 (Homo sapiens, UniProt Q9UL54).
T3 construct: screened for activity against several kinases in Jurkat cells; endogenous in cells; host or cells: Jurkat cell lysate
T3 sequence (Q9UL54 1-1235): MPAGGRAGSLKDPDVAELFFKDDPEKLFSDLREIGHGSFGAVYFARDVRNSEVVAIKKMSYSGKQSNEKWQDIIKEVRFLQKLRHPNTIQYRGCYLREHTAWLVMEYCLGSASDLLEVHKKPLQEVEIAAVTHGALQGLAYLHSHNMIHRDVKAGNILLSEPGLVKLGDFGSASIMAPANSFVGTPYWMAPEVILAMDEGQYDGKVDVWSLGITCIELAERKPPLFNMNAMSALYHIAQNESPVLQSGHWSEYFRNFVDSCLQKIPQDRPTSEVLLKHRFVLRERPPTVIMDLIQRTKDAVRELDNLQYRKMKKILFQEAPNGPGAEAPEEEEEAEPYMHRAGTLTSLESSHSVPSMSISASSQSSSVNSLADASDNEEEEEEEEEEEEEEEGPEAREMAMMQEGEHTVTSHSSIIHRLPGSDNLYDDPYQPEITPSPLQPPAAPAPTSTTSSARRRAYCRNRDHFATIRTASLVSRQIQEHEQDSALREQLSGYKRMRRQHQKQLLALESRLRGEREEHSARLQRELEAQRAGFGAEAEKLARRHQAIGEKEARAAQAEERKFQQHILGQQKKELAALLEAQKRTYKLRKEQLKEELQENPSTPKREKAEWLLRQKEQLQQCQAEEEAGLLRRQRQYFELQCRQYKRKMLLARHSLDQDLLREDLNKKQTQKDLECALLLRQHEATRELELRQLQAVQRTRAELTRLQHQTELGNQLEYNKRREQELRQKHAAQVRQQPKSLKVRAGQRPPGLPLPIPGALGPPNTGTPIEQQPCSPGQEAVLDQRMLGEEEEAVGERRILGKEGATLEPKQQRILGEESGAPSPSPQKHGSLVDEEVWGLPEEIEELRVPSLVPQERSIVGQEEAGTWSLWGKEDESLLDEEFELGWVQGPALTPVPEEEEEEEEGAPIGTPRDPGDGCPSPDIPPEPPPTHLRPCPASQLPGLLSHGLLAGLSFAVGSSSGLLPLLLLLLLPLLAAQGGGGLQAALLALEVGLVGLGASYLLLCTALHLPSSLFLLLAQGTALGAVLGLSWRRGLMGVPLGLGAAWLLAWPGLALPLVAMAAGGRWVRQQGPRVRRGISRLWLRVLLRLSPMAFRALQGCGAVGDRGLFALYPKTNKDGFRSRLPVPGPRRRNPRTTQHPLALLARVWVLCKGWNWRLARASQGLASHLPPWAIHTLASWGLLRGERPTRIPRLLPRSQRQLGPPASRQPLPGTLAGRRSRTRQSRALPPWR
Description: Probe-based (AX9989) kinase profiling in Jurkat lysate: TAO2. Conditions: read-out: TAO2 Inhibition % at indicated screening concentration; for inhibition at 1 µM: screening concentration 1 μM; for inhibition at 10 µM: screening concentration 10 μM. An outline of the steps: as §1

Another assay deals with T4, AurA (Homo sapiens, UniProt O14965).
T4 construct: screened for activity against several kinases in Jurkat cells; endogenous in cells; host or cells: Jurkat cell lysate
T4 sequence (O14965 1-403): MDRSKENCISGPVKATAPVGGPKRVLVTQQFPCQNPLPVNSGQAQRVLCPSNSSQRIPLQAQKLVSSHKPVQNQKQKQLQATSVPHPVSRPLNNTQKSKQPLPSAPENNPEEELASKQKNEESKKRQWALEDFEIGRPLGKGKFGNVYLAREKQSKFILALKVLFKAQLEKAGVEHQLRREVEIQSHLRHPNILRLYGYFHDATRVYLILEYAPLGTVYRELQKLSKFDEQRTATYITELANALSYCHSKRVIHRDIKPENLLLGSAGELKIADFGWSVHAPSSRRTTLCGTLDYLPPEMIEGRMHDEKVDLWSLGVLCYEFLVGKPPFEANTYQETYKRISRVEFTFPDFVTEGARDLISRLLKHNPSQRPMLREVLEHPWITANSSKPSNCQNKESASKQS
Put plainly: Probe-based (AX9989) kinase profiling in Jurkat lysate: AurA. As to conditions: read-out: AurA Inhibition % at indicated screening concentration; for inhibition at 1 µM: screening concentration 1 μM; for inhibition at 10 µM: screening concentration 10 μM. An outline of the steps:
as §1

Another assay relates to AMPKa1 or AMPKa2. Put plainly: Probe-based (AX9989) kinase profiling in Jurkat lysate: AMPKa1 or AMPKa2. The procedure, abridged:
as §1

Some results are limits rather than exact numbers.

T1 sequence (Q07912 whole entry): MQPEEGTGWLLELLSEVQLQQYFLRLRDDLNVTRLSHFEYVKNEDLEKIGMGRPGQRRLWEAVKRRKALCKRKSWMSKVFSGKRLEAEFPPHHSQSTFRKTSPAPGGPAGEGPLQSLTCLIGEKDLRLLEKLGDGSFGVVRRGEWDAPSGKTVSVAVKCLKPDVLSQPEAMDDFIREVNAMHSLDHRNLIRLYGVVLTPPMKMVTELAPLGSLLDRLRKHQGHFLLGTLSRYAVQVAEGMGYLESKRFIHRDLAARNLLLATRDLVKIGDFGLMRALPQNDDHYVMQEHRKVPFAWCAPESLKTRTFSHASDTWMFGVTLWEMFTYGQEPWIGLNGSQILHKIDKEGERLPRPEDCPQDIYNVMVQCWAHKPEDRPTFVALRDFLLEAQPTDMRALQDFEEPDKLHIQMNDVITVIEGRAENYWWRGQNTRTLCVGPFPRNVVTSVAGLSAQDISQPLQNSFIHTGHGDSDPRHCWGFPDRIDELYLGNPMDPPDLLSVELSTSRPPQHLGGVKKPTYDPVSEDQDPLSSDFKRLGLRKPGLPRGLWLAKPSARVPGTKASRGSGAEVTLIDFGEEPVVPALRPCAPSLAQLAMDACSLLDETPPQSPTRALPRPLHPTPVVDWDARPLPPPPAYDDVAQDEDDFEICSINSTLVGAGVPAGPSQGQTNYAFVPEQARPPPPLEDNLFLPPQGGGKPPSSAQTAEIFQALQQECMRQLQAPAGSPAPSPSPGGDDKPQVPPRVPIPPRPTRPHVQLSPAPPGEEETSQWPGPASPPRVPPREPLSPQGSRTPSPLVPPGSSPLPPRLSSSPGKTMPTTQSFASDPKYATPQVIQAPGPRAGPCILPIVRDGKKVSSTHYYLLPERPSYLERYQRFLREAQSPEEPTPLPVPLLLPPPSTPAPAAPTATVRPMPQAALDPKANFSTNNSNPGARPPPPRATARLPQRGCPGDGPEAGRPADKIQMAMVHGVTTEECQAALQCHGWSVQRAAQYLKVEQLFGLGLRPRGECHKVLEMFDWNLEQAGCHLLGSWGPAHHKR
T2 sequence (P23458 whole entry): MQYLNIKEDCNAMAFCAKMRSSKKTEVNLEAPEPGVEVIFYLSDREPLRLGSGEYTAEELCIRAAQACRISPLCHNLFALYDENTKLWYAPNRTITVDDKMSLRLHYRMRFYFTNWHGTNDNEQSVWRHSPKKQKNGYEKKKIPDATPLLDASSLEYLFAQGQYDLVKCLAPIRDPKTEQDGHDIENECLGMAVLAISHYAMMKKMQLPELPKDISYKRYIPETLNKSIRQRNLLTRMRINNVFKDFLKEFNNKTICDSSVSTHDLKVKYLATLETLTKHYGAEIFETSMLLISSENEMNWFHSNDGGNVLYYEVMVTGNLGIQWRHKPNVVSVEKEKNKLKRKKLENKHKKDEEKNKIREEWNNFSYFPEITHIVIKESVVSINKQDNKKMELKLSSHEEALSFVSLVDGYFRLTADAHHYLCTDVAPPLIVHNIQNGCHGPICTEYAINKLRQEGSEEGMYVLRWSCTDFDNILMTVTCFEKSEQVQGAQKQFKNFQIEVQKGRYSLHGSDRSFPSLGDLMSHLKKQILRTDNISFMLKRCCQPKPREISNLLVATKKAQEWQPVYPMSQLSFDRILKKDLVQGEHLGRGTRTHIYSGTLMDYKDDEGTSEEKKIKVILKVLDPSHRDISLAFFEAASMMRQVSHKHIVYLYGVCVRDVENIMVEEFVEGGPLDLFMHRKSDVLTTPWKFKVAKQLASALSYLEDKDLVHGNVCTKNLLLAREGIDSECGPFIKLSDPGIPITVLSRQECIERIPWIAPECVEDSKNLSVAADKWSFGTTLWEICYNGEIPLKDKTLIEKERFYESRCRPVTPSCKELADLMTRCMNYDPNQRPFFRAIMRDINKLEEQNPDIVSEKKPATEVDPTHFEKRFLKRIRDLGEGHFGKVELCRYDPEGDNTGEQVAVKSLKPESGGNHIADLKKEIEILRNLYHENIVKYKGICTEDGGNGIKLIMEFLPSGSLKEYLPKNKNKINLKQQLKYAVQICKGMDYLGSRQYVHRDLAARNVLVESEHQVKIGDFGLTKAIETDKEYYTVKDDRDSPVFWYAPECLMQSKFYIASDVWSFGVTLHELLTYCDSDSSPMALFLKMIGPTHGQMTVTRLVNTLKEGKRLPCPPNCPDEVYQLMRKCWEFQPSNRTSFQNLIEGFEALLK

Consider `CCOc1cc(C(=O)N2C[C@H]3CCN[C@H]3C2)ccc1Nc1cc2c(cn1)N(C)C(=O)c1ccccc1N2C` [Compound T5], for which the inhibition at 1 µM at ACK, at JAK1, at TAO2 and on AurA was not above 35% throughout. Further, the “AMPKa1 or AMPKa2 Inhibition % at indicated screening concentration” value (from here on “AMPKa1 or AMPKa2 Inhibition %”) in the assay on AMPKa1 or AMPKa2 (screening concentration 1 μM) was “E (E is ≦35%)”.
In the case of `CCOc1cc(C(=O)N2CCN(C3CCN(C)CC3)CC2)ccc1Nc1cc2c(cn1)N(C)C(=O)c1ccccc1N2C` [Compound T8], the inhibition at 1 µM at ACK, on JAK1, at TAO2 and on AurA was not above 35% throughout. Moreover, the “AMPKa1 or AMPKa2 Inhibition %” value in the assay on AMPKa1 or AMPKa2 (screening concentration 1 μM) is given as “E (E is ≦35%)”.
On to `CCOc1cc(C(=O)N2CC[C@@H](NCCF)C2)ccc1Nc1cc2c(cn1)N(C)C(=O)c1ccccc1N2C` [Compound T9], for which the inhibition at 1 µM on ACK, at JAK1, at TAO2 and on AurA was not above 35% throughout. In the assay with AMPKa1 or AMPKa2 (screening concentration 1 μM), the “AMPKa1 or AMPKa2 Inhibition %” value is on record as “E (E is ≦35%)”.
As for `CCOc1cc(C(=O)N2CCC(N3CC[C@@H](O)C3)CC2)ccc1Nc1cc2c(cn1)N(C)C(=O)c1ccccc1N2C` [Compound T10], the inhibition at 1 µM at ACK, at JAK1, on TAO2 and at AurA was not above 35% in each case. In addition, in the assay with AMPKa1 or AMPKa2 (screening concentration 1 μM), the “AMPKa1 or AMPKa2 Inhibition %” value is “E (E is ≦35%)”.
On to `CCOc1cc(C(=O)N2CCC(N3CC[C@H](O)C3)CC2)ccc1Nc1cc2c(cn1)N(C)C(=O)c1ccccc1N2C` [Compound T11], for which the inhibition at 1 µM at ACK, at JAK1, on TAO2 and at AurA was not above 35% throughout. In addition, the “AMPKa1 or AMPKa2 Inhibition %” value in the assay with AMPKa1 or AMPKa2 (screening concentration 1 μM) is listed as “E (E is ≦35%)”.
Take `CCOc1cc(C(=O)N2CCN(CCN(C)C)CC2)ccc1Nc1cc2c(cn1)N(C)C(=O)c1ccccc1N2C` [Compound T14]: the inhibition at 1 µM on ACK, at JAK1, on TAO2 and on AurA was not above 35% each time. Further, the “AMPKa1 or AMPKa2 Inhibition %” value in the assay with AMPKa1 or AMPKa2 (screening concentration 1 μM) is “E (E is ≦35%)”.
On to `CCOc1cc(C(=O)N2CCN(CCN3CCOCC3)CC2)ccc1Nc1cc2c(cn1)N(C)C(=O)c1ccccc1N2C` [Compound T15], for which the inhibition at 1 µM at ACK, at JAK1, on TAO2 and at AurA was not above 35% throughout. Besides, the “AMPKa1 or AMPKa2 Inhibition %” value in the assay on AMPKa1 or AMPKa2 (screening concentration 1 μM) is reported as “E (E is ≦35%)”.
On to `CCOc1cc(C(=O)N2CCN(C(C)=O)CC2)ccc1Nc1cc2c(cn1)N(C)C(=O)c1ccccc1N2C` [Compound T18], for which the inhibition at 1 µM at ACK, on JAK1, at TAO2 and on AurA was not above 35% each time. In addition, the “AMPKa1 or AMPKa2 Inhibition %” value in the assay on AMPKa1 or AMPKa2 (screening concentration 1 μM) is “E (E is ≦35%)”.
Regarding `CCOc1cc(C(=O)N2CC[C@@H](N3CCN(C)CC3)C2)ccc1Nc1cc2c(cn1)N(C)C(=O)c1ccccc1N2C` [Compound T20], the inhibition at 1 µM at ACK, at JAK1, at TAO2 and on AurA was not above 35% throughout. Moreover, the “AMPKa1 or AMPKa2 Inhibition %” value in the assay on AMPKa1 or AMPKa2 (screening concentration 1 μM) is reported as “E (E is ≦35%)”.
With `CCOc1cc(C(=O)N2CC[C@H](C#N)C2)ccc1Nc1cc2c(cn1)N(C)C(=O)c1ccccc1N2C` [Compound T22], the inhibition at 1 µM on ACK, at JAK1, at TAO2 and on AurA was not above 35% each time. In addition, the “AMPKa1 or AMPKa2 Inhibition %” value in the assay with AMPKa1 or AMPKa2 (screening concentration 1 μM) is recorded as “E (E is ≦35%)”.
Turning to `CCOc1cc(C(=O)N2CCC(N3CCCN(C)CC3)CC2)ccc1Nc1cc2c(cn1)N(C)C(=O)c1ccccc1N2C` [Compound T31], the inhibition at 1 µM at ACK, at JAK1, on TAO2 and on AurA was not above 35% throughout. In the assay on AMPKa1 or AMPKa2 (screening concentration 1 μM), the “AMPKa1 or AMPKa2 Inhibition %” value is given as “E (E is ≦35%)”.
`CN1CCN(C2CCN(C(=O)c3ccc(Nc4cc5c(cn4)N(C)C(=O)c4ccccc4N5C)c(OCCF)c3)CC2)CC1` [Compound T34]: the inhibition at 1 µM at ACK, on JAK1, at TAO2 and on AurA was not above 35% in each case. The “AMPKa1 or AMPKa2 Inhibition %” value in the assay with AMPKa1 or AMPKa2 (screening concentration 1 μM) is recorded as “E (E is ≦35%)”.
As for `CCOc1cc(C(=O)N2CCC(NC3CCN(C)CC3)C2)ccc1Nc1cc2c(cn1)N(C)C(=O)c1ccccc1N2C` (stereo not shown) [Compound T42], the inhibition at 1 µM on ACK, at JAK1, at TAO2 and on AurA was not above 35% each time. Further, the “AMPKa1 or AMPKa2 Inhibition %” value in the assay with AMPKa1 or AMPKa2 (screening concentration 1 μM) was “E (E is ≦35%)”.
On to `CCOc1cc(C(=O)N2CCC(N3CCN(C)CC3)CC2)ccc1Nc1cc2c(cn1)N(C)C(C(F)(F)F)c1ccccc1N2C` (stereo not shown) [Compound T47], for which the inhibition at 10 µM at ACK, at JAK1, at TAO2 and at AurA was not above 35% each time. The “AMPKa1 or AMPKa2 Inhibition %” value in the assay on AMPKa1 or AMPKa2 (screening concentration 10 μM) was “E (E is ≦35%)”.
On to `CC(C)Oc1cc(C(=O)N2CCC[C@H](O)C2)ccc1Nc1cc2c(cn1)N(C)C(=O)c1ccccc1N2C` [Compound T48], for which the inhibition at 10 µM on ACK, at JAK1, at TAO2 and at AurA was not above 35% in each case. Moreover, the “AMPKa1 or AMPKa2 Inhibition %” value in the assay with AMPKa1 or AMPKa2 (screening concentration 10 μM) is reported as “E (E is ≦35%)”.
On to `CC(C)Oc1cc(C(=O)N2CCN(C3CCN(C)CC3)CC2)ccc1Nc1cc2c(cn1)N(C)C(=O)c1ccccc1N2C` [Compound T49], for which the inhibition at 1 µM at ACK, at JAK1, at TAO2 and at AurA was not above 35% each time. Moreover, the “AMPKa1 or AMPKa2 Inhibition %” value in the assay with AMPKa1 or AMPKa2 (screening concentration 1 μM) was “E (E is ≦35%)”.
As for `CC(C)Oc1cc(C(=O)N2CC[C@@H](NCCF)C2)ccc1Nc1cc2c(cn1)N(C)C(=O)c1ccccc1N2C` [Compound T50], the inhibition at 1 µM on ACK, on JAK1, on TAO2 and at AurA was not above 35% throughout. In the assay on AMPKa1 or AMPKa2 (screening concentration 1 μM), the “AMPKa1 or AMPKa2 Inhibition %” value is recorded as “E (E is ≦35%)”.

These data come from patent US20170008888A1 (KYORIN PHARMACEUTICAL CO., LTD., priority 2014, published 2017).
